Data: patent publication US20220023294A1, “SYNTHETIC LETHALITY AND THE TREATMENT OF CANCER” (PACYLEX PHARMACEUTICALS INC., priority 2011, published 2022)

What was measured:
[1] = target: T1, NMT2 (Homo sapiens, UniProt O60551); test: In vitro NMT activity (peptide myristoylation) assay with purified recombinant enzyme; assay type: biochemical; conditions: purified recombinant NMT2, radiolabeled myristoyl peptide on phosphocellulose paper
T1 construct: His (N); made in house
T1 sequence (O60551 1-498): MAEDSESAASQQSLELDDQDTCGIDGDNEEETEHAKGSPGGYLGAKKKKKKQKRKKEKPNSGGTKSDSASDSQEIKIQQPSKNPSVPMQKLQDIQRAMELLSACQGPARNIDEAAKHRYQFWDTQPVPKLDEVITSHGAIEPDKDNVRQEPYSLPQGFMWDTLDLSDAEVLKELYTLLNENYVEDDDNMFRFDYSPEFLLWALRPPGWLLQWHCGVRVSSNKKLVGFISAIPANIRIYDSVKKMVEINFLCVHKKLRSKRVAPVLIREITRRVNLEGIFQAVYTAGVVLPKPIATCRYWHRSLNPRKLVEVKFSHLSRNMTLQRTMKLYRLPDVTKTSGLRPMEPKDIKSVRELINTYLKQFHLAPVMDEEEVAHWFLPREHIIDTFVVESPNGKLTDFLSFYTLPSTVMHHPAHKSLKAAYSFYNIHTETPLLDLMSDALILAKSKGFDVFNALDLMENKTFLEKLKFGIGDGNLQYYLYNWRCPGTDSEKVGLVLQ
From the text: (§1) N-myristoyltransferase activity assay protocol was adapted from Raju, R. V., and Sharma, R. K. (1999) Preparation and assay of myristoyl-CoA:protein N-myristoyltransferase. Methods Mol Biol 116, 193-211. [^3H] myristoyl-CoA was freshly synthesized for each experiment, as previously described by Towler, D., and Glaser, L. (1986) Protein fatty acid acylation: enzymatic synthesis of an N-myristoylglycyl peptide. Proc Nal Acad Sci USA 83, 2812-2816. Briefly, cells were resuspended in 0.25 M sucrose buffer (50 mM NaH2PO4, pH 7.4) and subjected to 2 rounds of sonication at level 6.0 on a Branson Sonicator. […] Discs were washed (washing buffer: 25 mM Tris buffer, pH 7.4) to remove the residual radioactivity ([^3H]-myristate and [^3H]-myristoyl-CoA) while [^3H]-myristoyl-peptide is retained on the phosphocellulose paper. Radioactivity was quantified by liquid scintillation counting and converted into pMol of myristoylated peptide (Raju, R. V., and Sharna, R. K. (1999) Preparation and assay of myristoyl-CoA:protein N-myristoyltransferase. Methods Mol Biol 116, 193-211
(§2) NMT activity was assayed using a peptide myristoylation assay with purified recombinant NMT1 and NMT2. NMT activity was calculated from the amount of radiolabeled myristoyl peptide produced and detected on phosphocellulose paper (adapted from King et al. 1991, Anal Biochem.).

[2] = target: T2, NMT1 (Homo sapiens, UniProt P30419); test: as above; assay type: biochemical; conditions: purified recombinant NMT1, radiolabeled myristoyl peptide on phosphocellulose paper
T2 construct: His (N); made in house
T2 sequence (P30419 1-496): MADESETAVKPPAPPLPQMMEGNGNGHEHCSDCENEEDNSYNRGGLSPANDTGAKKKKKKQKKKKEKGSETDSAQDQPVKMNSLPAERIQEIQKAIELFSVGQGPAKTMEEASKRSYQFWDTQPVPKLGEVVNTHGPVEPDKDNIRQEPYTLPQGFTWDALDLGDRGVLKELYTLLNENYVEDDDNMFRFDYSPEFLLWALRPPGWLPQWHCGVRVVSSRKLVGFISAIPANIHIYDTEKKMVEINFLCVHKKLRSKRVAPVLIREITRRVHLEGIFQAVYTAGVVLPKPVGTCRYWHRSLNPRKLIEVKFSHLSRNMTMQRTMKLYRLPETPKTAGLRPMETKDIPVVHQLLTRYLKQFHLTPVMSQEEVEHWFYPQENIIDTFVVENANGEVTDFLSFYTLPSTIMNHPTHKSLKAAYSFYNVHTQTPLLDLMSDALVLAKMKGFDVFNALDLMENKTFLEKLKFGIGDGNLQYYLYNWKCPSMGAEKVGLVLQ
From the text: as §1, §2

[3] = test system: Ramos B lymphoma cells; test: Survival of Ramos cells transfected with pcDNA3.1-V5-NMT2 in the presence of TrisDBA (trypan blue exclusion); assay type: cell-based, human; conditions: TrisDBA 5 ug/ml, 24 hours
Experimental: B cells were transfected using the Neon® transfection system (Life technologies) following manufacturer's instructions and optimized protocol for Ramos B cells transfection (pulse voltage 1,300V; pulse width 20 ms, 2 pulses and 7.7.10^6 cells/mL) adapted for 100 μL tips. Classically, two transfections were pulled to obtained enough living cells to perform a viability assay.
(§3) B and T cell viability was measured using the trypan blue exclusion method. Cells were grown in confluency conditions (2×10^6 cells/mL maximum) assuring the minimum basal apoptosis. After incubation with NMT inhibitors, about 20 000 cells (10 μL) were incubated with 10 μL of TC10™ Trypan Blue Dye (Biorad) for 15 min. Cell viability was quantified using the TC10™ automated cell counter (Biorad).
In this example, transfection of Ramos B lymphoma cells (which, as shown herein, expresses NMT1) with pcDNA3.1-V5-NMT2 increased survival to TrisDBA (5 ug/ml) 2.5 fold vs control cells transfected with empty plasmid vector. In FIG. 6, 20×10^6 Ramos B lymphoma cells were transfected with 32 μg of DNA (pcDNA3.1-V5-empty or pcDNA3.1-V5-NMT2) using the Neon Transfection System (Invitrogen) following the recommended protocol for Ramos cell line (1,350 Volt, 30 ms). […] After a PBS wash, cells were resuspended and grown in RPMI containing TrisDBA (5 ug/ml) for 24 hours then counted using the trypan blue exclusion method (Panel A). […]

[4] = test system: B cell lymphomas and T cell leukemias; test: Cell viability assay (trypan blue exclusion) after incubation with NMT inhibitors; assay type: cell-based, human; conditions: 24 h, increasing concentration, control adjusted to 100%
Experimental: Tris dibutylbenzinylidene acetone paladium (TrisDBA) was a kind gift of Dr. Arbiser. Cells were incubated at increasing concentrations for 24 hours with TrisDBA (or DMSO for control) or for 24 and 48 hours with DDD85646.
as §3
FIG. 2 depicts the sensitivity of various B cell lymphomas and T cell leukemias to the NMT inhibitors tris-dibenzylideneacetone-dipalladium (Tris-DBA). Various B and T cells were incubated for 24 h with increasing concentration of Tris DBA. Cell viability was measured using trypan blue exclusion method and adjusted to 100% for control.

tris-dibenzylideneacetone-dipalladium [Tris-DBA]
Inhibition of NMT activity [1]: inhibits NMT in vitro | Inhibition of NMT activity [2]: inhibits NMT in vitro | Increased survival of NMT2-transfected cells vs control cells transfected with empty plasmid vector [3]: 2.5 fold | Cell survival curves (sensitivity of B cell lymphomas versus other cells) [4]: more sensitive
